This note sets out measurements from patent publication US20090062294A1, “HETEROARYL-SUBSTITUTED UREA MODULATORS OF FATTY ACID AMIDE HYDROLASE” (priority 2007, published 2009).

Test [1] addresses T1, FAAH (Homo sapiens, UniProt O00519).
T1 sequence (O00519 1-579): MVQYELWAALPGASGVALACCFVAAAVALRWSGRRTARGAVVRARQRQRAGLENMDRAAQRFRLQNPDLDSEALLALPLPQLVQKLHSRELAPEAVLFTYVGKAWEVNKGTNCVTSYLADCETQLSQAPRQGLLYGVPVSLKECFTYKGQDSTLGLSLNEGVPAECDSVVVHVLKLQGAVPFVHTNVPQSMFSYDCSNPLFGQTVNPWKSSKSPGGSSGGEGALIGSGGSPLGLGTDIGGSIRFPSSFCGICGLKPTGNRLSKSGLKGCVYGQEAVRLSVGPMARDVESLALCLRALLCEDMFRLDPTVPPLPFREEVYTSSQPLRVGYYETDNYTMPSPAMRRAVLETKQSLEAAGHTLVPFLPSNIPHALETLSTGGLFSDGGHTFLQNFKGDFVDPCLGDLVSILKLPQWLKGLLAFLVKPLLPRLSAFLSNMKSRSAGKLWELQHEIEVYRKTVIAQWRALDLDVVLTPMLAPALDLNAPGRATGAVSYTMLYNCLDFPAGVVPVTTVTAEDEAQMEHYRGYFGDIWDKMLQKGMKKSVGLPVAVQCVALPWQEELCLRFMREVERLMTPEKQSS
Put plainly: Assay Method 1: FAAH assay, 3H-anandamide hydrolysis in homogenate of T84 cells or SK-N-MC cells transfected with human FAAH. In kind it is biochemical. The conditions noted are these: average of results, > = solubility limit or highest concentration tested. Here is the method:
A. Transfection of Cells with Human FAAH
(§1) A 10-cm tissue culture dish with a confluent monolayer of SK—N-MC cells was split 2 days (d) prior to transfection. Using sterile technique, the media was removed and the cells were detached from the dish by the addition of trypsin. One fifth of the cells were then placed onto a new 10-cm dish. Cells were grown in a 37° C. incubator with 5% CO2 in Minimal Essential Media Eagle with 10% Fetal Bovine Serum. After 2 d, cells were approximately 80% confluent. These cells were removed from the dish with trypsin and pelleted in a clinical centrifuge. The pellet was re-suspended in 400 μL complete media and transferred to an electroporation cuvette with a 0.4 cm gap between the electrodes. Supercoiled human FAAH cDNA (1 μg) was added to the cells and mixed. The voltage for the electroporation was set at 0.25 kV, and the capacitance was set at 960 μF. After electroporation, the cells were diluted into complete media (10 mL) and plated onto four 10-cm dishes. Because of the variability in the efficiency of electroporation, four different concentrations of cells were plated. The ratios used were 1:20, 1:10, and 1:5, with the remainder of the cells being added to the fourth dish. The cells were allowed to recover for 24 h before adding the selection media (complete media with 600 μg/mL G418). After 10 d, dishes were analyzed for surviving colonies of cells. Dishes with well-isolated colonies were used. Cells from individual colonies were isolated and tested.
(§2) T84 frozen cell pellets or transfected SK—N-MC cells (contents of 1×15 cm culture dishes) were homogenized in 50 mL of FAAH assay buffer (125 mM Tris, 1 mM EDTA, 0.2% Glycerol, 0.02% Triton X-100, 0.4 mM Hepes, pH 9). The assay mixture consisted of 50 μL of the cell homogenate, 10 μL of the test compound, and 40 μL of anandamide [1-^3H-ethanolamine] (^3H-AEA, Perkin-Elmer, 10.3 Ci/mmol), which was added last, for a final tracer concentration of 80 nM. The reaction mixture was incubated at rt for 1 h. During the incubation, 96-well Multiscreen filter plates (catalog number MAFCNOB50; Millipore, Bedford, Mass., USA) were loaded with 25 μL of activated charcoal (Multiscreen column loader, catalog number MACL09625, Millipore) and washed once with 100 μL of MeOH. Also during the incubation, 96-well DYNEX MicroLite plates (catalog number NL510410) were loaded with 100 μL of MicroScint40 (catalog number 6013641, Packard Bioscience, Meriden, Conn., USA). After the 1 h incubation, 60 μL of the reaction mixture were transferred to the charcoal plates, which were then assembled on top of the DYNEX plates using Centrifuge Alignment Frames (catalog number MACF09604, Millipore). The unbound labeled ethanolamine was centrifuged through to the bottom plate (5 min at 2000 rpm), which was preloaded with the scintillant, as described above. The plates were sealed and left at rt for 1 h before counting on a Hewlett Packard TopCount.
(§3) Compounds were tested in free base, hydrochloride salt, and/or trifluoroacetic acid salt forms.

For test [2], the target named is T2, rat FAAH (Rattus norvegicus, UniProt P97612).
T2 sequence (P97612 1-579): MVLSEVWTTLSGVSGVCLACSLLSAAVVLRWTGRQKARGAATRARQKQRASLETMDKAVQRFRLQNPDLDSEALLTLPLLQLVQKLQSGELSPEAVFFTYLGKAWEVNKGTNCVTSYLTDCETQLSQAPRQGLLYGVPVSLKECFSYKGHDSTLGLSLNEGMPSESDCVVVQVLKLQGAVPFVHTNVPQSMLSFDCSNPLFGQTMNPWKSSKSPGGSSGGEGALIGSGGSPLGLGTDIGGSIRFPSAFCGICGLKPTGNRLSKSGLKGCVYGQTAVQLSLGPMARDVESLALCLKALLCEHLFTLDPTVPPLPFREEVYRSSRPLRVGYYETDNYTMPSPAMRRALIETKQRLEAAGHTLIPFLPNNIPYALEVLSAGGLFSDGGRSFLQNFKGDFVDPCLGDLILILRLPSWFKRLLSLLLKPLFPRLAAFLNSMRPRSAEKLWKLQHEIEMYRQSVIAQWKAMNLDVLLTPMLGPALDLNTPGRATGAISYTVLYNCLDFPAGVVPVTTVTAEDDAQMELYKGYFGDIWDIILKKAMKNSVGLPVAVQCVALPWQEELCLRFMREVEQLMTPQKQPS
Put plainly: Assay Method 2: FAAH assay, 3H-anandamide hydrolysis in homogenate of SK-N-MC cells transfected with rat FAAH. The format is biochemical. The conditions noted are these: average of results, > = solubility limit or highest concentration tested. Here is the method:
A. Transfection of Cells with Rat FAAH
as §1, with “rat” for “human”
as §2, §3

Usually IC50 stands for the concentration that gives 50% inhibition.

SMILES strings stand for the structures. Where a name gives a salt, the structure may show the parent alone.

Regarding `O=C(Nc1cc(-c2ccccc2)[nH]n1)N1CCN(Cc2cccc(Oc3ccc(Cl)cc3)c2)CC1` [Example 244, 4-[3-(4-Chlorophenoxy)benzyl]-N-(5-phenyl-1H-pyrazol-3-yl)piperazine-1-carboxamide trifluoroacetate salt], the IC50 in test [1] came out at 1400 nM; in test [2] it was 7000 nM.
Take `O=C(Nc1noc2ccccc12)N1CCN(Cc2cccc(OC(F)(F)F)c2)CC1` [Example 52, 4-(3-Trifluoromethoxy-benzyl)-piperazine-1-carboxylic acid benzo[d]isoxazol-3-ylamide trifluoroacetic acid salt]: the IC50 was 74 nM in test [1] and 322 nM in test [2].
As for `O=C(Nc1noc2ccccc12)N1CCN(Cc2cccc(Oc3cc(F)cc(F)c3)c2)CC1` [Example 34, 4-[3-(3,5-Difluoro-phenoxy)-benzyl]-piperazine-1-carboxylic acid benzo[d]isoxazol-3-ylamide trifluoroacetic acid salt], the IC50 was 152 nM in test [1] and 190 nM in test [2].
Take `O=C(Nc1ccc(Cl)nn1)N1CCN(Cc2cccc(Oc3ccc(Cl)c(Cl)c3)c2)CC1` [Example 43, 4-[3-(3,4-Dichloro-phenoxy)-benzyl]-piperazine-1-carboxylic acid (6-chloro-pyridazin-3-yl)-amide trifluoroacetic acid salt]: the 50% inhibitory concentration (IC50) in test [1] was found to be 983 nM; in test [2] it was 6 nM.
For `O=C(Nc1ccon1)N1CCN(Cc2cccc(Oc3ccc(C(F)(F)F)cc3)c2)CC1` [Example 161, N-isoxazol-3-yl-4-{3-[4-(trifluoromethyl)phenoxy]benzyl}piperazine-1-carboxamide], in that order: 4 nM and 160 nM.
For `COC(=O)c1ccccc1C#Cc1cccc(CN2CCN(C(=O)Nc3noc4ccccc34)CC2)c1` [Example 87, Methyl 2-[(3-{[4-(1,2-benzisoxazol-3-ylcarbamoyl)piperazin-1-yl]methyl}phenyl)ethynyl]benzoate], the IC50 came to 2000 nM in test [1] and 480 nM in test [2].
For `N#Cc1ccc(Oc2cccc(CN3CCN(C(=O)Nc4ccon4)CC3)c2)cc1` [Example 152, 4-[3-(4-Cyano-phenoxy)-benzyl]-piperazine-1-carboxylic acid isoxazol-3-ylamide], in that order: 330 nM and 5000 nM.
The like results for `O=C(Nc1nn[nH]n1)N1CCN(Cc2cccc(Oc3ccc(F)c(F)c3)c2)CC1` [Example 169, 4-[3-(3,4-Difluorophenoxy)benzyl]-N-1H-tetrazol-5-ylpiperazine-1-carboxamide] were, in that order, 610 nM and 600 nM.
The like results for `O=C(Nc1cnccn1)N1CCN(Cc2cccc(Oc3ccc(F)c(C(F)(F)F)c3)c2)CC1` [Example 241, 4-{3-[4-Fluoro-3-(trifluoromethyl)phenoxy]benzyl}-N-pyrazin-2-ylpiperazine-1-carboxamide] were, in that order, 8 nM and 370 nM.
For the compound `O=C(Nc1cnccn1)N1CCN(Cc2cnc3ccccc3c2)CC1` [Example 224, N-Pyrazin-2-yl-4-(quinolin-3-ylmethyl)piperazine-1-carboxamide], the values for the concentration for half-maximal inhibition (IC50) in test [1] and in test [2] were 4000 nM and greater than 10000 nM, respectively.
Take `O=C(Nc1cccnn1)N1CCN(Cc2cccc(C#Cc3ccccc3Cl)c2)CC1` [Example 79, 4-{3-[(2-Chlorophenyl)ethynyl]benzyl}-N-pyridazin-3-ylpiperazine-1-carboxamide]: the figures for the IC50 in test [1] and in test [2] were 46 nM and 320 nM, respectively.
As for `O=C(Nc1cnccn1)N1CCN(Cc2cccc(Oc3ccc(Br)cc3)c2)CC1` [Example 221, 4-[3-(4-Bromophenoxy)benzyl]-N-pyrazin-2-ylpiperazine-1-carboxamide], the concentration for half-maximal inhibition (IC50) in test [1] came out at 3 nM; in test [2], 50 nM.
The like results for `O=C(Nc1cc[nH]n1)N1CCN(Cc2ccc(F)c(Oc3ccccc3)c2)CC1` [Example 56, 4-(4-Fluoro-3-phenoxy-benzyl)-piperazine-1-carboxylic acid (1H-pyrazol-3-yl)-amide trifluoroacetic acid salt] were, in that order, 1500 nM and 550 nM.
The like results for `O=C(Nc1noc2ccccc12)N1CCN(Cc2cccc(Oc3ccc(Cl)c(Cl)c3)c2)CC1` [Example 50, 4-[3-(3,4-Dichloro-phenoxy)-benzyl]-piperazine-1-carboxylic acid benzo[d]isoxazol-3-ylamide trifluoroacetic acid salt] were, in that order, 42 nM and 18 nM.
In the case of `O=C(Nc1noc2ccccc12)N1CCN(Cc2cccc(C#CC3CCCC3)c2)CC1` [Example 71, N-1,2-Benzisoxazol-3-yl-4-[3-(cyclopentylethynyl)benzyl]-piperazine-1-carboxamide], the half-maximal inhibitory concentration (IC50) worked out at 13 nM in test [1] and 50 nM in test [2].
For `O=C(Nc1cnccn1)N1CCN(Cc2cccc(Oc3ccc(SC(F)(F)F)cc3)c2)CC1` [Example 234, N-Pyrazin-2-yl-4-(3-{4-[(trifluoromethyl)sulfanyl]phenoxy}benzyl)-piperazine-1-carboxamide], in that order: 6 nM and 12 nM.
For `Cc1cc(NC(=O)N2CCN(Cc3cccc(Oc4ccc(Cl)cc4)c3)CC2)nn1C` [Example 191, 4-[3-(4-Chloro-phenoxy)-benzyl]-piperazine-1-carboxylic acid (1,5-dimethyl-1H-pyrazol-3-yl)-amide trifluoroacetic acid salt], in that order: 3000 nM and greater than 10000 nM.
